Laboratory results: patent US5578570A, “Method of treating septic shock using thymosin β4” (The George Washington University Medical Center, priority 1994, dated 1996)

Test system: endotoxic mice
Assay: Survival of Swiss Webster mice following lethal endotoxin dose and Tβ4
Assay type: in vivo
Conditions: for Number of Mice Alive: Table II, 8 mice at 0 hr.
Method: Swiss-Webster mice 4-6 weeks of age (20-25 g) were housed 6 per cage. The mice were divided into 2 groups: endotoxic mice (endotoxin 60 mg/kg i.p. in acute treatment) and endotoxic mice treated with Tβ4, 5 minutes and 2, 4, 6, 8, 10, 12, 14, 16, 18, 20, 22, 24 hours post administration of the endotoxin. Survival was recorded 2 times a day for 7 days.
Swiss-Webster mice 4-6 weeks of age (20-25 g) were divided into groups as follows.
1. Mice treated with a lethal dose of endotoxin (60 mg/kg).
2. […]
3. […]
4. […]

Thymosin β4 [Tβ4] was tested, and the “protective activity on endotoxin lethality (in words)” value (10 μg Tβ4) was “sometimes shown positive activity”, the “Survival (No. mice alive)” value (Table I, endotoxin 60 mg/kg + Tβ4 100 μg 1x, 24 hrs, 7 mice at 0 hrs) was 4 and the “Survival (No. mice alive)” value (Table I, endotoxin 60 mg/kg + Tβ4 100 μg 1x, 48 hrs, 7 mice at 0 hrs) was 3. For the same substance, the “Survival (No. mice alive)” value (Table I, endotoxin 60 mg/kg + Tβ4 100 μg 1x, 72 hrs, 7 mice at 0 hrs) was 3, the “Survival (No. mice alive)” value (Table I, endotoxin 60 mg/kg + Tβ4 100 μg 2x, 24 hrs, 7 mice at 0 hrs) was 4 and the “Survival (No. mice alive)” value (Table I, endotoxin 60 mg/kg + Tβ4 100 μg 2x, 48 hrs, 7 mice at 0 hrs) was 4. The “Survival (No. mice alive)” value (Table I, endotoxin 60 mg/kg + Tβ4 100 μg 2x, 72 hrs, 7 mice at 0 hrs) was 4, the “Survival (No. mice alive)” value (Table I, endotoxin 60 mg/kg + Tβ4 100 μg 3x, 24 hrs, 7 mice at 0 hrs) was 7 and the “Survival (No. mice alive)” value (Table I, endotoxin 60 mg/kg + Tβ4 100 μg 3x, 48 hrs, 7 mice at 0 hrs) was 7. For the same substance, the “Survival (No. mice alive)” value (Table I, endotoxin 60 mg/kg + Tβ4 100 μg 3x, 72 hrs, 7 mice at 0 hrs) was 7, the “Number of Mice Alive” value (endotoxin 60 mg/kg + Tβ4 100 μg 3x, 24 hr.) was 8 and the “Number of Mice Alive” value (endotoxin 60 mg/kg + Tβ4 100 μg 3x, 48 hr.) was 8. The “Number of Mice Alive” value (endotoxin 60 mg/kg + Tβ4 100 μg 3x, 72 hr.) was 8, the “Number of Mice Alive” value (endotoxin 60 mg/kg + Tβ4 100 μg 3x, 7 day) was 8 and the “Number of Mice Alive” value (endotoxin 60 mg/kg + Tβ4 100 μg 3x, 14 day) was 8. For the same substance, the “Survival (No. mice alive)” value (Table VI, endotoxin 60 mg/kg + Tβ4 10 μg 3x, immediately following, 2 and 4 hrs after endotoxin, 24 hrs, 8 mice at 0 hrs) was 8, the “Survival (No. mice alive)” value (Table VI, endotoxin 60 mg/kg + Tβ4 10 μg 3x, immediately following, 2 and 4 hrs after endotoxin, 48 hrs, 8 mice at 0 hrs) was 6 and the “Survival (No. mice alive)” value (Table VI, endotoxin 60 mg/kg + Tβ4 10 μg 3x, immediately following, 2 and 4 hrs after endotoxin, 72 hrs, 8 mice at 0 hrs) was 6. For the same substance, the “Survival (No. mice alive)” value (Table VI, endotoxin 60 mg/kg + Tβ4 10 μg 3x, immediately following, 2 and 4 hrs after endotoxin, 96 hrs, 8 mice at 0 hrs) was 6, the “Survival (No. mice alive)” value (Table VI, endotoxin 60 mg/kg + Tβ4 10 μg 3x, immediately following, 2 and 4 hrs after endotoxin, 120 hrs, 8 mice at 0 hrs) was 6 and the “Survival (No. mice alive)” value (Table VI, endotoxin 60 mg/kg + Tβ4 100 μg 3x, 2, 4 and 6 hrs after endotoxin, 24 hrs, 8 mice at 0 hrs) was 7. For the same substance, the “Survival (No. mice alive)” value (Table VI, endotoxin 60 mg/kg + Tβ4 100 μg 3x, 2, 4 and 6 hrs after endotoxin, 48 hrs, 8 mice at 0 hrs) was 4, the “Survival (No. mice alive)” value (Table VI, endotoxin 60 mg/kg + Tβ4 100 μg 3x, 2, 4 and 6 hrs after endotoxin, 72 hrs, 8 mice at 0 hrs) was 4 and the “Survival (No. mice alive)” value (Table VI, endotoxin 60 mg/kg + Tβ4 100 μg 3x, 2, 4 and 6 hrs after endotoxin, 96 hrs, 8 mice at 0 hrs) was 4. The “Survival (No. mice alive)” value (Table VI, endotoxin 60 mg/kg + Tβ4 100 μg 3x, 2, 4 and 6 hrs after endotoxin, 120 hrs, 8 mice at 0 hrs) was 4, the “Survival (No. mice alive)” value (Table VI, endotoxin 60 mg/kg + Tβ4 100 μg 3x, immediately following, 2 and 4 hrs after endotoxin, 24 hrs, 8 mice at 0 hrs) was 8 and the “Survival (No. mice alive)” value (Table VI, endotoxin 60 mg/kg + Tβ4 100 μg 3x, immediately following, 2 and 4 hrs after endotoxin, 48 hrs, 8 mice at 0 hrs) was 8. The “Survival (No. mice alive)” value (Table VI, endotoxin 60 mg/kg + Tβ4 100 μg 3x, immediately following, 2 and 4 hrs after endotoxin, 72 hrs, 8 mice at 0 hrs) was 8, the “Survival (No. mice alive)” value (Table VI, endotoxin 60 mg/kg + Tβ4 100 μg 3x, immediately following, 2 and 4 hrs after endotoxin, 96 hrs, 8 mice at 0 hrs) was 8 and the “Survival (No. mice alive)” value (Table VI, endotoxin 60 mg/kg + Tβ4 100 μg 3x, immediately following, 2 and 4 hrs after endotoxin, 120 hrs, 8 mice at 0 hrs) was 8. The “Survival (No. mice alive)” value (Table VII, endotoxin 60 mg/kg + Tβ4 10 μg 3x i.p., immediately following, 2 and 4 hrs after endotoxin, 24 hrs, 10 mice at 0 hrs) was 3, the “Survival (No. mice alive)” value (Table VII, endotoxin 60 mg/kg + Tβ4 10 μg 3x i.p., immediately following, 2 and 4 hrs after endotoxin, 48 hrs, 10 mice at 0 hrs) was 3 and the “Survival (No. mice alive)” value (Table VII, endotoxin 60 mg/kg + Tβ4 10 μg 3x i.p., immediately following, 2 and 4 hrs after endotoxin, 72 hrs, 10 mice at 0 hrs) was 3. For the same substance, the “Survival (No. mice alive)” value (Table VII, endotoxin 60 mg/kg + Tβ4 10 μg 3x i.p., immediately following, 2 and 4 hrs after endotoxin, 96 hrs, 10 mice at 0 hrs) was 3, the “Survival (No. mice alive)” value (Table VII, endotoxin 60 mg/kg + Tβ4 10 μg 3x i.p., immediately following, 2 and 4 hrs after endotoxin, 5 days, 10 mice at 0 hrs) was 3 and the “Survival (No. mice alive)” value (Table VII, endotoxin 60 mg/kg + Tβ4 10 μg 3x i.p., immediately following, 2 and 4 hrs after endotoxin, 6 days, 10 mice at 0 hrs) was 3. For the same substance, the “Survival (No. mice alive)” value (Table VII, endotoxin 60 mg/kg + Tβ4 20 μg 3x i.p., immediately following, 2 and 4 hrs after endotoxin, 24 hrs, 10 mice at 0 hrs) was 5, the “Survival (No. mice alive)” value (Table VII, endotoxin 60 mg/kg + Tβ4 20 μg 3x i.p., immediately following, 2 and 4 hrs after endotoxin, 48 hrs, 10 mice at 0 hrs) was 4 and the “Survival (No. mice alive)” value (Table VII, endotoxin 60 mg/kg + Tβ4 20 μg 3x i.p., immediately following, 2 and 4 hrs after endotoxin, 72 hrs, 10 mice at 0 hrs) was 4. The “Survival (No. mice alive)” value (Table VII, endotoxin 60 mg/kg + Tβ4 20 μg 3x i.p., immediately following, 2 and 4 hrs after endotoxin, 96 hrs, 10 mice at 0 hrs) was 3, the “Survival (No. mice alive)” value (Table VII, endotoxin 60 mg/kg + Tβ4 20 μg 3x i.p., immediately following, 2 and 4 hrs after endotoxin, 5 days, 10 mice at 0 hrs) was 3 and the “Survival (No. mice alive)” value (Table VII, endotoxin 60 mg/kg + Tβ4 20 μg 3x i.p., immediately following, 2 and 4 hrs after endotoxin, 6 days, 10 mice at 0 hrs) was 3. The “Survival (No. mice alive)” value (Table VII, endotoxin 60 mg/kg + Tβ4 50 μg 3x i.p., immediately following, 2 and 4 hrs after endotoxin, 24 hrs, 10 mice at 0 hrs) was 9.
